Data on 1 molecule can be found in patent US20260007629A1, “DIETARY BUTYRATE AND ITS USES” (SOCIETE DES PRODUITS NESTLE S.A., priority 2019, published 2026).

Structures are written as SMILES.

In data set [1] the test system is rabbit gastric lipase (RGL) followed by porcine pancreatic lipase (PPL). In words: In vitro sequential digestion, SGF followed by SIF, pH-stat. In kind it is in vitro ADME.
Protocol: (§1) 10 wt % oil in water emulsions stabilised by 0.3 wt % polyoxyethylene sorbitan mono-oleate (Tween® 80) were prepared by mixing the Tween 80 into the oil phase at 40° C., then mixing with the water phase using a magnetic stirrer.
(§2) The lipid emulsion (2 mL) containing 200 mg of fat was subjected to gastrointestinal in vitro lipolysis. […] For gastric digestion, the sample was incubated for 90 minutes with 8.5 mL of simulated gastric fluid (SGF), which consisted of 150 mM NaCl, 450 U/mL pepsin, 18 U/mL rabbit gastric lipase at 37° C. and a pH of 5.5.
The intestinal digestion step was performed in the pH stat where the pH was kept constant at 6.8 by addition of NaOH (0.05 M). […] The intestinal digestion step starts when the temperature reaches 37±0.5° C. The pH was adjusted to pH 6.8 and after incubation of two minutes at this pH and temperature, a pancreatin solution (5 mM tris, 150 mM NaCl at pH 6.8) was added. The final composition of the intestinal fluid was 10 mM CaCl2, 2 mM mixed bile salts, 0.75 mM phospholipid, 150 mM NaCl and 4 mM tris (hydroxymethyl) aminomethane buffer. The intestinal digestion step was carried out for 3 hours in a titration manager from RADIOMETER®. During the intestinal phase of digestion, the kinetics of digestion were followed using a pH-stat (TIM856, RADIOMETER®) technique and expressed as titratable acid (rather than fatty acid) that was calculated by the equation:
TA: Total titratable acid released, mmol; VNaOH: volume of NaOH used to titrate the released acid in 3 h, mL.
(§3) Since the digestion of dietary lipids involves lipases of both gastric and intestinal origin, lipid digestibility was assessed using two digestion models i) simulated intestinal fluid (SIF) with porcine pancreatic lipase (PPL) and ii) sequential digestion in simulated gastric fluid (SGF) with rabbit gastric lipase (RGL) followed by simulated intestinal fluid (SIF) with porcine pancreatic lipase (PPL).
For data set [2], the target named is T1, porcine pancreatic lipase (PPL) (Sus scrofa, UniProt P00591).
T1 sequence (P00591 1-450): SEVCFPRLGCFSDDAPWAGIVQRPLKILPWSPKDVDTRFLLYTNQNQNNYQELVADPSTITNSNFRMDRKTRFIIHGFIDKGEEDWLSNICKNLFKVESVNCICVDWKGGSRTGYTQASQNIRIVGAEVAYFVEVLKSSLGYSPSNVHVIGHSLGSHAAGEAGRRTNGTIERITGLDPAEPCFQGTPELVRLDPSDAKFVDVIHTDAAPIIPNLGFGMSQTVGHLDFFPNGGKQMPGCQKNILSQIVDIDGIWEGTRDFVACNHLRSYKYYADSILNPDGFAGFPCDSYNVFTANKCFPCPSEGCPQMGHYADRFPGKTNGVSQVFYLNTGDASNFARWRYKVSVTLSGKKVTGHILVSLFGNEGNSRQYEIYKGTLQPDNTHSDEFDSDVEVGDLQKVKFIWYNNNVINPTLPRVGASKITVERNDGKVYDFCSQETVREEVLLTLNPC
T1 sequence (P02703 23-112 partner): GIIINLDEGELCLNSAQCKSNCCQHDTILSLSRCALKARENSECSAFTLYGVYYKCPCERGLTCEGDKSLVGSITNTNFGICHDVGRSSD
To be noted: pig, 3 h, pH 11.5. The text has this:
Because many fatty acids are only partially ionised at pH 6.8, direct titration gives only partial picture of the extent of lipid digestion, instead back titration to pH 11.5 or GC-FAME analysis is required to estimate the full extent of digestion.

Data set [3] addresses T1, porcine pancreatic lipase (PPL). In words: In vitro digestion, simulated intestinal fluid (SIF) model, pH-stat. The data set is classed as in vitro ADME. To be noted: SIF alone; emulsion with 200 mg fat, pH 6.8, 37° C. Also noted: by porcine pancreatic lipase (from pancreatin); purchased SIGMA-ALDRICH P7585; host or cells: porcine pancreas extract (pancreatin).
Protocol: as §1, §2
The intestinal digestion step was performed in the pH stat where the pH was kept constant at 6.8 by addition of NaOH (0.05 M). […] The intestinal digestion step starts when the temperature reaches 37±0.5° C. […] During the intestinal phase of digestion, the kinetics of digestion were followed using a pH-stat (TIM856, RADIOMETER®) technique and expressed as titratable acid (rather than fatty acid) that was calculated by the equation: […]
as §3

For the molecule `CCCC(=O)OCC(COC(=O)CCC)OC(=O)CCC` [tributyrin], the “initial lipolysis rate in SIF compartment” value in data set [1] (SGF-SIF digestion (90 min SGF pre-exposure, pH 5.5)) worked out at 44.1 ± 8.8 µmol/min. Further, the “hydrolysis in the stomach / extent of gastric lipolysis” value in data set [1] (in words, gastric compartment of the model) was “extensive hydrolysis in the stomach”. Also, the “lipolysis by gastric lipase” value in data set [1] (indicated by decreased total fatty acid release in SIF after RGL pre-exposure) is reported as roughly 60%. Also, in data set [2], the extent of digestion is 101.5±0.9%. The “initial (maximal) rate of lipolysis” value in data set [3] was 223 ± 59 µmol/min.
